Assay results: US12568972B2, “Pyridazinol compounds and derivatives, preparation methods, herbicidal compositions and applications thereof” (Qingdao Kingagroot Chemical Compound Co., Ltd., priority 2018, dated 2026)

Columns and labels:
Test in all cases: Post-emergence test, weed control effect
Type in all cases: in vivo
Details in all cases: after 3 weeks
[1] = system: Chenopodiaceae
In short: (§1)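 Scores use a 0 (no effect) to 10 (dead) scale of fresh-weight inhibition, assessed 3 weeks after spraying. Treatment was at the 2-3 leaf stage, 2-3 weeks post-sowing, using acetone/Tween-80/water solutions with 80% vegetable oil methyl ester synergist at 1500 g/ha.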

[2] = system: Rorippa indica
In short: as §1

[3] = system: Amaranthus retroflexus
In short: as §1

[4] = system: Veronica polita
In short: as §1

Oc1cc(C(F)(F)F)nnc1-c1ccc(C2CC2)cc1 [Compound 24]
10: weed control effect (activity level), Chenopodiaceae ([1]; dose 2000 g/ha) | weed control effect (activity level), Rorippa indica ([2]; dose 2000 g/ha) | weed control effect (activity level), Amaranthus retroflexus ([3]; dose 2000 g/ha) | weed control effect (activity level), Veronica polita ([4]; dose 2000 g/ha)

Oc1cc(C(F)(F)F)nnc1-c1ccccc1F [Compound 26]
10: weed control effect (activity level), Chenopodiaceae ([1]; dose 1000 g/ha) | weed control effect (activity level), Rorippa indica ([2]; dose 1000 g/ha) | weed control effect (activity level), Amaranthus retroflexus ([3]; dose 1000 g/ha) | weed control effect (activity level), Veronica polita ([4]; dose 1000 g/ha)

Oc1cc(C(F)(F)F)nnc1-c1cccc(Cl)c1 [Compound 27]
10: weed control effect (activity level), Chenopodiaceae ([1]; dose 1000 g/ha) | weed control effect (activity level), Rorippa indica ([2]; dose 1000 g/ha) | weed control effect (activity level), Amaranthus retroflexus ([3]; dose 1000 g/ha) | weed control effect (activity level), Veronica polita ([4]; dose 1000 g/ha)

Oc1cc(C(F)(F)F)nnc1-c1ccc(Br)cc1 [Compound 28]
10: weed control effect (activity level), Chenopodiaceae ([1]; dose 1000 g/ha) | weed control effect (activity level), Rorippa indica ([2]; dose 1000 g/ha) | weed control effect (activity level), Amaranthus retroflexus ([3]; dose 1000 g/ha) | weed control effect (activity level), Veronica polita ([4]; dose 1000 g/ha)

Oc1cc(C(F)(F)F)nnc1-c1cccc(I)c1 [Compound 29]
10: weed control effect (activity level), Chenopodiaceae ([1]; dose 1000 g/ha) | weed control effect (activity level), Rorippa indica ([2]; dose 1000 g/ha) | weed control effect (activity level), Amaranthus retroflexus ([3]; dose 1000 g/ha) | weed control effect (activity level), Veronica polita ([4]; dose 1000 g/ha)

Oc1cc(C(F)(F)F)nnc1-c1ccccc1Cl [Compound 30]
10: weed control effect (activity level), Chenopodiaceae ([1]; dose 1000 g/ha) | weed control effect (activity level), Rorippa indica ([2]; dose 1000 g/ha) | weed control effect (activity level), Amaranthus retroflexus ([3]; dose 1000 g/ha) | weed control effect (activity level), Veronica polita ([4]; dose 1000 g/ha)

Oc1cc(C(F)(F)F)nnc1-c1cccc(Br)c1 [Compound 31]
10: weed control effect (activity level), Chenopodiaceae ([1]; dose 1000 g/ha) | weed control effect (activity level), Rorippa indica ([2]; dose 1000 g/ha) | weed control effect (activity level), Amaranthus retroflexus ([3]; dose 1000 g/ha) | weed control effect (activity level), Veronica polita ([4]; dose 1000 g/ha)

Oc1cc(C(F)(F)F)nnc1-c1ccc(I)cc1 [Compound 33]
10: weed control effect (activity level), Chenopodiaceae ([1]; dose 1000 g/ha) | weed control effect (activity level), Rorippa indica ([2]; dose 1000 g/ha) | weed control effect (activity level), Amaranthus retroflexus ([3]; dose 1000 g/ha) | weed control effect (activity level), Veronica polita ([4]; dose 1000 g/ha)

Oc1cc(C(F)(F)F)nnc1-c1cc(F)ccc1F [Compound 34]
10: weed control effect (activity level), Chenopodiaceae ([1]; dose 1000 g/ha) | weed control effect (activity level), Rorippa indica ([2]; dose 1000 g/ha) | weed control effect (activity level), Amaranthus retroflexus ([3]; dose 1000 g/ha) | weed control effect (activity level), Veronica polita ([4]; dose 1000 g/ha)

Oc1cc(C(F)(F)F)nnc1-c1c(F)cccc1F [Compound 36]
10: weed control effect (activity level), Chenopodiaceae ([1]; dose 1000 g/ha) | weed control effect (activity level), Rorippa indica ([2]; dose 1000 g/ha) | weed control effect (activity level), Amaranthus retroflexus ([3]; dose 1000 g/ha) | weed control effect (activity level), Veronica polita ([4]; dose 1000 g/ha)

Oc1cc(C(F)(F)F)nnc1-c1cc(Cl)ccc1Cl [Compound 37]
10: weed control effect (activity level), Chenopodiaceae ([1]; dose 1000 g/ha) | weed control effect (activity level), Rorippa indica ([2]; dose 1000 g/ha) | weed control effect (activity level), Amaranthus retroflexus ([3]; dose 1000 g/ha) | weed control effect (activity level), Veronica polita ([4]; dose 1000 g/ha)

Oc1cc(C(F)(F)F)nnc1-c1ccc(Cl)c(Cl)c1 [Compound 38]
10: weed control effect (activity level), Chenopodiaceae ([1]; dose 1000 g/ha) | weed control effect (activity level), Rorippa indica ([2]; dose 1000 g/ha) | weed control effect (activity level), Amaranthus retroflexus ([3]; dose 1000 g/ha) | weed control effect (activity level), Veronica polita ([4]; dose 1000 g/ha)

Oc1cc(C(F)(F)F)nnc1-c1ccc(Cl)cc1Cl [Compound 39]
10: weed control effect (activity level), Chenopodiaceae ([1]; dose 1000 g/ha) | weed control effect (activity level), Rorippa indica ([2]; dose 1000 g/ha) | weed control effect (activity level), Amaranthus retroflexus ([3]; dose 1000 g/ha) | weed control effect (activity level), Veronica polita ([4]; dose 1000 g/ha)

Oc1cc(C(F)(F)F)nnc1-c1cc(Cl)cc(Cl)c1 [Compound 40]
10: weed control effect (activity level), Chenopodiaceae ([1]; dose 1000 g/ha) | weed control effect (activity level), Rorippa indica ([2]; dose 1000 g/ha) | weed control effect (activity level), Amaranthus retroflexus ([3]; dose 1000 g/ha) | weed control effect (activity level), Veronica polita ([4]; dose 1000 g/ha)

Oc1cc(C(F)(F)F)nnc1-c1c(Cl)cccc1Cl [Compound 41]
10: weed control effect (activity level), Chenopodiaceae ([1]; dose 1000 g/ha) | weed control effect (activity level), Rorippa indica ([2]; dose 1000 g/ha) | weed control effect (activity level), Amaranthus retroflexus ([3]; dose 1000 g/ha) | weed control effect (activity level), Veronica polita ([4]; dose 1000 g/ha)

Oc1cc(C(F)(F)F)nnc1-c1cccc(Cl)c1Cl [Compound 42]
10: weed control effect (activity level), Chenopodiaceae ([1]; dose 1000 g/ha) | weed control effect (activity level), Rorippa indica ([2]; dose 1000 g/ha) | weed control effect (activity level), Amaranthus retroflexus ([3]; dose 1000 g/ha) | weed control effect (activity level), Veronica polita ([4]; dose 1000 g/ha)

Oc1cc(C(F)(F)F)nnc1-c1ccc(F)cc1Cl [Compound 44]
10: weed control effect (activity level), Chenopodiaceae ([1]; dose 1000 g/ha) | weed control effect (activity level), Rorippa indica ([2]; dose 1000 g/ha) | weed control effect (activity level), Amaranthus retroflexus ([3]; dose 1000 g/ha) | weed control effect (activity level), Veronica polita ([4]; dose 1000 g/ha)

Oc1cc(C(F)(F)F)nnc1-c1cccc(Cl)c1F [Compound 45]
10: weed control effect (activity level), Chenopodiaceae ([1]; dose 1000 g/ha) | weed control effect (activity level), Rorippa indica ([2]; dose 1000 g/ha) | weed control effect (activity level), Amaranthus retroflexus ([3]; dose 1000 g/ha) | weed control effect (activity level), Veronica polita ([4]; dose 1000 g/ha)

Oc1cc(C(F)(F)F)nnc1-c1cc(F)cc(Cl)c1 [Compound 46]
10: weed control effect (activity level), Chenopodiaceae ([1]; dose 1000 g/ha) | weed control effect (activity level), Rorippa indica ([2]; dose 1000 g/ha) | weed control effect (activity level), Amaranthus retroflexus ([3]; dose 1000 g/ha) | weed control effect (activity level), Veronica polita ([4]; dose 1000 g/ha)

Oc1cc(C(F)(F)F)nnc1-c1c(F)cccc1Br [Compound 47]
10: weed control effect (activity level), Chenopodiaceae ([1]; dose 1000 g/ha) | weed control effect (activity level), Rorippa indica ([2]; dose 1000 g/ha) | weed control effect (activity level), Amaranthus retroflexus ([3]; dose 1000 g/ha) | weed control effect (activity level), Veronica polita ([4]; dose 1000 g/ha)

Oc1cc(C(F)(F)F)nnc1-c1cccc(Br)c1F [Compound 48]
10: weed control effect (activity level), Chenopodiaceae ([1]; dose 1000 g/ha) | weed control effect (activity level), Rorippa indica ([2]; dose 1000 g/ha) | weed control effect (activity level), Amaranthus retroflexus ([3]; dose 1000 g/ha) | weed control effect (activity level), Veronica polita ([4]; dose 1000 g/ha)

Oc1cc(C(F)(F)F)nnc1-c1cc(F)cc(Br)c1 [Compound 49]
10: weed control effect (activity level), Chenopodiaceae ([1]; dose 1000 g/ha) | weed control effect (activity level), Rorippa indica ([2]; dose 1000 g/ha) | weed control effect (activity level), Amaranthus retroflexus ([3]; dose 1000 g/ha) | weed control effect (activity level), Veronica polita ([4]; dose 1000 g/ha)

Oc1cc(C(F)(F)F)nnc1-c1cc(C(F)(F)F)ccc1F [Compound 50]
10: weed control effect (activity level), Chenopodiaceae ([1]; dose 1000 g/ha) | weed control effect (activity level), Rorippa indica ([2]; dose 1000 g/ha) | weed control effect (activity level), Amaranthus retroflexus ([3]; dose 1000 g/ha) | weed control effect (activity level), Veronica polita ([4]; dose 1000 g/ha)
